Test results taken from US6797712B2, “Substituted amino-furan-2-yl-acetic acid and amino-thien-2-yl-acetic acid derivatives and their use in the treatment of migraine and pain” (Gruenenthal GmbH, priority 2000, dated 2004).
Counter-ions that a name gives are not always drawn.

Biological target: T1, glycine binding site of the NMDA receptor channel (Rattus norvegicus, UniProt P35439)
T1 construct: from tissue; host or cells: rat brain cortex and hippocampus membrane homogenate (male Wistar rats)
Experiment: Receptor binding studies, displacement of (3H)-MDL 105,519 from brain membrane homogenates
Conditions: for Displacement (%, 10 μmol) / inhibition at 10 µM: percentage of bonded radioactive ligand (3H)-MDL 105,519 displaced from specific binding at 10 μM of test substance; for Ki: glycine binding site of the NMDA receptor channel, rat cortex/hippocampus membrane homogenate, 1 nmol/l (3H)-MDL 105,519, from IC50 by Cheng-Prussoff equation; for inhibition at 10 µM: read-out: Displacement (%, 10 μmol)
Experimental: The tests to determine the affinity of the compounds of formula (I) according to the invention for the glycine binding site of the NMDA receptor channel were carried out on brain membrane homogenates (homogenate of cortex and hippocampus area from the brains of male rats, Wistar strain) (B. M. Baron, B. W. Siegel, B. L. Harrison, R. S. Gross, C. Hawes and P. Towers, Journal of Pharmacology and Experimental Therapeutics, (1996), Vol. 279, p. 62).
To that end, cortex and hippocampus from freshly removed rat brains were exposed and homogenized, while cooling with ice, in 5 mmol/l of TRIS acetate buffer, […] of saccharose pH 7.4 (10 ml/g fresh weight) using a Potter homogenizer (Braun/Melsungen; 10 piston strokes at 500 rpm) and then centrifuged for 10 minutes at 1000 g and 4° C. The first supernatant was collected and the sediment was again homogenized, while cooling with ice, with 5 mmol/l of TRIS acetate buffer, 0.32 mol/l of saccharose pH 7.4 (5 ml/g original fresh weight) using the Potter homogenizer (10 piston strokes at 500 rpm) and centrifuged for 10 minutes at 1000 g and 4° C. The resulting supernatant was combined with the supernatant from the first centrifugation and centrifuged for 20 minutes at 17,000 g and 4° C. The supernatant from this centrifugation was discarded and the membrane sediment was taken up in 5 mmol/l of TRIS acetate buffer pH 8.0 (20 ml/g original fresh weight) and homogenized with 10 piston strokes at 500 rpm.
The membrane homogenate was then incubated for one hour at 4° C. and centrifuged for 30 minutes at 50,000 g and 4° C. The supernatant was discarded and the centrifuge tube containing the membrane sediment was closed with Parafilm and frozen for 24 hours at −20° C. On the following day, the membrane sediment was thawed and taken up in 5 mmol/l of ice-cold TRIS acetate buffer, 0.1% saponin (w/v) pH 7.0 (10 ml/g original fresh weight) and homogenized with 10 piston strokes at 500 rpm and then centrifuged for 20 minutes at 50,000 g and 4° C. The resulting supernatant was discarded and the sediment was taken up in a small volume in 5 mmol/l of TRIS acetate buffer pH 7.0 (about 2 ml/g original fresh weight) and again homogenized with 10 piston strokes at 500 rpm. After determination of the protein content, the membrane homogenate was adjusted to a protein concentration of 10 mg of protein/ml with 5 mmol/l TRIS acetate buffer pH 7.0, and was frozen in aliquots until testing.
For the receptor binding test, aliquots were thawed, diluted 1:10 with 5 mmol/l of TRIS acetate buffer pH 7.0, homogenized, while cooling with ice, with 10 piston strokes at 500 rpm using the Potter homogenizer (10 piston strokes at 500 rpm) and centrifuged for 60 minutes at 55,000 g and 4° C. The supernatant was decanted off and the membrane sediment was adjusted to a protein concentration of 1 mg/ml with 50 mmol/l of ice-cold TRIS acetate buffer pH 7.0 and again homogenized with 10 piston strokes at 500 rpm and maintained in suspension in an ice-bath while stirring with a magnetic stirrer. Of that membrane homogenate, 100 μl per 1 ml batch were used in the receptor binding test (0.1 mg protein/ml in the final batch).
In the binding test, 50 mmol/l of TRIS acetate buffer pH 7.0 were used as the buffer, and 1 nmol/l of (^3H)-MDL 105,519 (B. M. Baron et al. 1996) was used as the radioactive ligand. The proportion of non-specific binding was determined in the presence of 1 mmol/l of glycine.
In further batches, the compounds according to the invention were added in series of concentrations and the displacement of the radioactive ligand from its specific binding to the glycine binding site of the NMDA receptor channel was determined. The respective triplicate batches were incubated for 120 minutes at 4° C. and then harvested by means of filtration through glass fiber filter mats (GF/B) for determination of the radioactive ligand bonded to the membrane homogenate. […]

| Compound | binding to the glycine binding site of the NMDA ion channel (statement in words) (general statement in the description, no values) | Displacement (%, 10 μmol) [%] | Ki [µM] | inhibition at 10 µM [%] |
| --- | --- | --- | --- | --- |
| COc1ccc(NC(C(=O)O)c2cccs2)cc1 (centres unmarked) [(4-methoxy-phenylamino)-thien-2-yl-acetic acid, reference compound] | bind selectively to the glycine binding site of the NMDA ion channel |  |  |  |
| CSCc1ccc(C(Nc2cc(Cl)cc(Cl)c2)C(=O)O)o1 (centres unmarked) [Example 106, (3,5-Dichloro-phenylamino)-(5-methylsulfanylmethyl-furan-2-yl)-acetic acid] |  | 65 |  |  |
| CSCc1ccc(C(Nc2cc(Cl)cc(Cl)c2)C(=O)O)o1.Cl (centres unmarked) [Example 106-HCl, (3,5-Dichloro-phenylamino)-(5-methylsulfanylmethyl-furan-2-yl)-acetic acid hydrochloride] |  | 91 |  |  |
| CSCc1ccc(C(Nc2cc(Cl)cc(Cl)c2)C(=O)O)o1.[Na] (centres unmarked) [Example 106-Na, (3,5-Dichloro-phenylamino)-(5-methylsulfanylmethyl-furan-2-yl)-acetic acid sodium] |  | 78 | 2.98 |  |
| O=C(O)C(Nc1cc(Cl)cc(Cl)c1)c1ccc(CS)o1 (centres unmarked) [Example 107, (3,5-Dichloro-phenylamino)-(5-mercaptomethyl-furan-2-yl)-acetic acid] |  |  |  | 101 |
| O=C(O)C(Nc1cc(Cl)cc(Cl)c1)c1ccc(CO)s1 (centres unmarked) [Example 109, (3,5-Dichloro-phenylamino)-(5-hydroxymethyl-thiophen-2-yl)-acetic acid] |  |  |  | 66 |
| CC(=O)SCc1ccc(C(Nc2cc(Cl)cc(Cl)c2)C(=O)O)o1 (centres unmarked) [Example 110, (5-Acetylsulfanylmethyl-furan-2-yl)-(3,5-dichloro-phenylamino)-acetic acid] |  |  | 0.12 | 104 |
| CCc1ccc(C(Nc2cc(Cl)cc(Cl)c2)C(=O)O)s1 (centres unmarked) [Example 111, (3,5-Dichloro-phenylamino)-(5-ethyl-thiophen-2-yl)-acetic acid] |  |  |  | 44 |
| O=C(O)C(Nc1cccc(Cl)c1)c1ccc(CS)o1 (centres unmarked) [Example 113, (3-Chloro-phenylamino)-(5-mercaptomethyl-furan-2-yl)-acetic acid] |  |  |  | 99 |
| O=C(O)C(Nc1ccc(Cl)c(Cl)c1)c1ccc(CS)o1 (centres unmarked) [Example 114, (3,4-Dichloro-phenylamino)-(5-mercaptomethyl-furan-2-yl)-acetic acid] |  |  |  | 45 |
| CC(C)(C)c1ccc(C(Nc2cc(Cl)cc(Cl)c2)C(=O)O)o1 (centres unmarked) [Example 119-HCl, (5-tert-Butylfuran-2-yl)-(3,5-dichlorophenylamino)-acetic acid hydrochloride] |  |  |  | 91 |
| O=C(O)C(Nc1cc(Cl)cc(Cl)c1)c1ccc(CSSCc2ccco2)o1 (centres unmarked) [Example 120, (3,5-Dichlorophenylamino)-[5-(furan-2-ylmethyldisulfanylmethyl)-furan-2-yl]-acetic acid] |  |  | 0.47 | 103 |
| CSSCc1ccc(C(Nc2cc(Cl)cc(Cl)c2)C(=O)O)o1 (centres unmarked) [Example 121, (3,5-Dichlorophenylamino)-(5-methyldisulfanylmethyl-furan-2-yl)-acetic acid] |  |  | 0.29 | 106 |
| CC(=O)OCc1ccc(C(Nc2cc(Cl)cc(Cl)c2)C(=O)O)o1 (centres unmarked) [Example 123, (5-Acetoxymethylfuran-2-yl)-(3,5-dichlorophenylamino)-acetic acid] |  |  | 5.03 | 60 |
| Cc1ccc(C(Nc2cc(Cl)cc(Cl)c2)C(=O)O)s1 (centres unmarked) [Example 125-Na, (3,5-Dichlorophenylamino)-(5-methylthiophen-2-yl)-acetic acid sodium salt] |  |  | 5.03 | 63 |
| Cc1csc(C(Nc2cc(Cl)cc(Cl)c2)C(=O)O)c1 (centres unmarked) [Example 126, (3,5-Dichlorophenylamino)-(4-methylthiophen-2-yl)-acetic acid] |  |  | 15.4 | 52 |
| O=C(O)C(Nc1cc(Cl)cc(Cl)c1)c1ccc(Cl)s1 (centres unmarked) [Example 127, (5-Chlorothiophen-2-yl)-(3,5-dichlorophenylamino)-acetic acid] |  |  | 2.57 | 68 |
| O=C([O-])C(Nc1cc(Cl)cc(Cl)c1)c1ccc(Cl)s1.[Na+] (centres unmarked) [Example 127-Na, (3,5-Dichlorophenylamino)-(5-chlorothiophen-2-yl)-acetic acid sodium salt] |  | 72 |  |  |
